Experiments:
[1] = biological target: butyrylcholine esterase (BuChE) (Homo sapiens, UniProt P06276); experiment: Butyrylcholine esterase assay; format: biochemical; conditions: compound concentration 10 uM; human serum enzyme; 560 uM S-butyrylthiocholine
Method: Butyrylcholine Esterase Assay.
The assay was conducted as follows [Ellman G. L., Courtney K. D., Andres Jr. V., and Featherstone R. N. A new and rapid colorimetric determination of acetylcholinesterase activity.

[2] = biological target: T1, 5-HT6 Receptor (Homo sapiens, UniProt P50406); experiment: Binding with 5-HT6 receptor (radioligand binding); conditions: compound concentration 10 uM; ligand 1.5 nM [3H]-LSD
T1 construct: expressed in transfected cells; host or cells: HeLa cells
Method: Binding with 5-HT6 Receptor.
The assay was conducted as follows [Monsma F. J., Jr, Shen Y., Ward R. P., Hamblin M. W., and Sibley D. R. Cloning and Expression of a novel serotonin receptor with high affinity for tricyclic psychotropic drugs. Mol. Pharmacol. 1993, 43: 320-327]: • Receptor source: human recombinant HeLa cells; • Ligand: 1.5 nM [3H]-lysergic acid diethylamide (LSD); • Vehicle: 1% DMSO; • Incubation time: 2 hours at 37 C; • Incubation buffer: 50 mM Tris-HCl, pH 7.4, 150 mM NaCl, 2 mM ascorbic acid, 0.001% BSA; • Compound concentration: 10 uM; • Non-specific ligand: 5 uM serotonin (5-HT); • Quantitation method: radioligand binding

[3] = tested on: mitochondrial permeability transition pores; conditions: MPP(+) and beta-amyloid fragment 25-35; cited from earlier work
[4] = tested on: C57BL/6 mice; experiment: Object recognition test, recognition of a new localization of an object; format: in vivo; conditions: for object exploration / discrimination ratio compared with control: 0.02 mg/kg; for time exploring the object in a familiar localization / time exploring the object in a new localization: 0.1 mg/kg, tested 48 hours after training
Excerpt: Object recognition test as a method for research on the effects of some exemplary compounds on memory in mice.
The object recognition test is based on a spontaneous behavior of rats and mice to explore a novel object or a new localization of an object more often than a familiar one. This test was first developed for rats [Ennaceur A., Delacour J. A new one-trial test for neurobiological studies of memory in rats. 1: behavioral data. Behav. Brain Res. 1988; 31:47-59]. Thereafter, various researchers have shown that the test is also suitable for assessing memory performance in mice [e.g., Dodart J. C., Mathis C., Ungerer A. Scopolamine-induced deficits in a two-trial object recognition task in mice. NeuroReport 8 (1997), pp. 1173-1178]. The object recognition test is divided into two tests: a test of recognition of a new localization of an object that is used for research on spatial memory, and a test of recognition of a new object that is used for research on non-spatial memory.
Twenty (20) to twenty-two (22) month-old female mice (old mice) and four (4) to six (6) month-old male mice (young mice) of C57BL/6 strain were used. The animals were housed five per cage under a normal light cycle (12×12, light on at 8:00 AM) and with free access to water and food. The training box was made of white, opaque organic glass with dimensions of 48×38×30 cm. Two kinds of plastic items were used as objects for recognition: a white cylinder (d=4 cm, h=2.8 cm), and a black, three-edged prism (2.5×2.5×3.5 cm and h=3.4 cm). Care was taken to avoid olfactory stimuli by cleaning the objects and box carefully. Two (2) to three (3) min before the mice were placed into the box, the objects and the box were wiped with 85% ethanol. Animals were always placed in the middle of the training box.
Referring again to FIGS. 1A-1B and FIGS. 2A-2C, the mice were injected intraperitoneally with some of the various exemplary compounds shown in the figures, or with the vehicle (solvent) alone in the same volume, one hour before the recall trial.
On the first day of the experiment, the mice were handled in the research room for 20 to 30 min for acclimatization. Then, one by one, the mice were habituated to the training box by being placed into the box without any object for 20 min to explore the box, and were returned to their cages.
On the next day, the same mice were brought into a research room. After 20-30 min of acclimatization, each mouse was placed into an empty box for one minute. Then, the mouse was removed from the training box. Two identical objects (white cylinders) were placed approximately 5 inches distant from two adjacent corners of the box and immediately an animal was returned to the box. The time of exploring of each individual object was registered separately with the help of two electronic stop-watches (to within 0.1 sec). The behavior of each animal was observed through a mirror. Exploration was operationally defined as directing the nose to the object from a distance less than 2 cm, or touching the object with the nose. The duration of the training trial was 5, 10, 15 and 20 minutes.
[…] Testing was performed the same way as training, but one of the two familiar objects was changed to the new object (black prism).
When the recognition of a new localization of an object improved, the same experimental sequence was performed, except that only the localization of one of the familiar objects was changed in the testing session.
A significant variability of object exploration times between animals was measured. The ratio of object-exploration times was calculated as follows: each object-exploration time was divided by the sum of both of the object-exploration times during the same testing session, and expressed in percent: (tnew×100%)/(tfamiliar+tnew)
The data were analyzed using a one-way analysis of variance followed by a Student's t-test.

[5] = biological target: NMDA receptor; conditions: read-out: NMDA receptor inhibition constant (Ki); cited from earlier work

Chain of butyrylcholine esterase (BuChE) (P06276 29-602): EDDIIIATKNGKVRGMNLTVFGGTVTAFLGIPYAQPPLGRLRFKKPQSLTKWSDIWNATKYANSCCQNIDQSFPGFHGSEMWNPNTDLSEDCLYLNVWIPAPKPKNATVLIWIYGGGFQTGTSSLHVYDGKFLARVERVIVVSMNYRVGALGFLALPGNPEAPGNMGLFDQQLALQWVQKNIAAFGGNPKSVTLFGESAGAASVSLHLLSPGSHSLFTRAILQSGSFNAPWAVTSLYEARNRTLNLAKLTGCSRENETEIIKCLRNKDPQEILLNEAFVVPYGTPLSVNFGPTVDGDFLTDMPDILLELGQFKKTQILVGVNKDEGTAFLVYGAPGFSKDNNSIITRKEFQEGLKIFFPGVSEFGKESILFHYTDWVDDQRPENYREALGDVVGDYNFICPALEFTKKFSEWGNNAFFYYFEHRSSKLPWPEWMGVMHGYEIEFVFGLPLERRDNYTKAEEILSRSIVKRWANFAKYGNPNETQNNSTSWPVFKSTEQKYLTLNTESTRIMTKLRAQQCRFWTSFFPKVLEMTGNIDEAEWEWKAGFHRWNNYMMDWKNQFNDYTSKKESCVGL
T1 sequence (P50406 whole entry): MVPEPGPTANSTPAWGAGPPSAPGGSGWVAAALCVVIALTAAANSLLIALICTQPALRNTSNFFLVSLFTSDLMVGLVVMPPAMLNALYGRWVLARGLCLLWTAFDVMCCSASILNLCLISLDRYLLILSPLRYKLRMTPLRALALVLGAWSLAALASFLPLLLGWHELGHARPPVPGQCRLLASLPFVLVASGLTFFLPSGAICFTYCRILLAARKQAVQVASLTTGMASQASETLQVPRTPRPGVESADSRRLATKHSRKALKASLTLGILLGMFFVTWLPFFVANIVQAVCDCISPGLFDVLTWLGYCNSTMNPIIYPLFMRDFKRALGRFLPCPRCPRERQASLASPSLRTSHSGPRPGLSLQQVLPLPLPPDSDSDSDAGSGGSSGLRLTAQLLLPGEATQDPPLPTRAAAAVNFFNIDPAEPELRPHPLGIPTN

| Compound | inhibition at 10 µM [1] [%] | inhibition at 10 µM [2] [%] | further results |
| --- | --- | --- | --- |
| CN1CCc2c(c3ccccc3n2CCc2ccc(C(F)(F)F)nc2)C1 [4-01] | 65 | 67 |  |
| Cc1ccc2c(c1)c1c(n2CCc2ccc(C(F)(F)F)nc2)CCN(C)C1 [4-02] | 95 | 97 |  |
| CN1CCc2c(c3cc(F)ccc3n2CCc2ccc(C(F)(F)F)nc2)C1 [4-03] | 34 | 72 |  |
| CN1CCc2c(c3cc(Cl)ccc3n2CCc2ccc(C(F)(F)F)nc2)C1 [4-04] | 97 | 100 |  |
| CN1CCc2c(c3cc(F)cc(F)c3n2CCc2ccc(C(F)(F)F)nc2)C1 [4-07] | 20 | 79 |  |
| CCN1CCc2c(c3cc(Cl)ccc3n2CCc2ccc(C(F)(F)F)nc2)C1 [4-08] | 100 | 77 |  |
| COc1ccc2c(c1)c1c(n2CCc2ccc(C(F)(F)F)nc2)CCN(C)C1 [I. 4-06] | 99 | 72 |  |
| CC(=O)NCCc1c[nH]c2ccc(O)cc12 [N-acetylserotonin] |  |  | prevention of neurotoxin-induced opening of mitochondrial pores [3]: prevented |
| CN1CCc2c(c3ccccc3n2CCc2cncc(F)c2)C1 [compound 1] | 75 | 90 |  |
| Cc1ccc2c(c1)c1c(n2CCc2cncc(F)c2)CCN(C)C1 [compound 2] | 87 | 102 |  |
| CN1CCc2c(c3cc(F)ccc3n2CCc2cncc(F)c2)C1 [compound 3] | 58 | 99 |  |
| CN1CCc2c(c3cc(Cl)ccc3n2CCc2cncc(F)c2)C1 [compound 4] | 91 | 103 |  |
| CN1CCc2c(c3cc(Br)ccc3n2CCc2cncc(F)c2)C1 [compound 5] | 96 | 103 | effectiveness as memory stimulating agents relative to memantine [4]: approximately 25 times; object exploration / discrimination ratio compared with control [4]: did not differ significantly from the control; time exploring the object in a familiar localization [4]: approximately 43.0%; time exploring the object in a new localization [4]: 57+/−4.6% |
| COc1ccc2c(c1)c1c(n2CCc2cncc(F)c2)CCN(C)C1 [compound 6] | 99 | 96 |  |
| CN1CCc2c(c3cc(F)cc(F)c3n2CCc2cncc(F)c2)C1 [compound 8] | 31 | 91 | effectiveness as memory stimulating agents relative to memantine [4]: approximately 25 times; object exploration / discrimination ratio compared with control [4]: not different from that of the control mice; time exploring the object in a familiar localization [4]: 39.2+/−6.9%; time exploring the object in a new localization [4]: 60.8+/−6.9% |
| CN1CCc2c(c3cc(C(F)(F)F)ccc3n2CCc2cncc(F)c2)C1 [compound 9] | 95 | 103 |  |
| CN1CCc2c(c3cc(OC(F)(F)F)ccc3n2CCc2cncc(F)c2)C1 [compound 10] | 100 | 95 |  |
| CCN1CCc2c(c3ccccc3n2CCc2cncc(F)c2)C1 [compound 11] | 66 | 77 |  |
| CCN1CCc2c(c3cc(C)ccc3n2CCc2cncc(F)c2)C1 [compound 12] | 89 | 101 |  |
| CCN1CCc2c(c3cc(F)ccc3n2CCc2cncc(F)c2)C1 [compound 14] | 53 | 88 |  |
| CCN1CCc2c(c3cc(Cl)ccc3n2CCc2cncc(F)c2)C1 [compound 15] | 94 | 99 |  |
| CC12CC3CC(C)(C1)CC(N)(C3)C2 [memantine] |  |  | Ki [5]: 500 nM |
| Nc1c2c(nc3ccccc13)CCCC2 [tacrine] |  |  | prevention of neurotoxin-induced opening of mitochondrial pores [3]: prevented |

— patent US7935823B2 (priority 2007, dated 2011)
